This is an account of results in PubChem BioAssay (NCI).

SMILES strings stand for the structures. Several values for one entry are separate records, joined by “and”; a condition that tells them apart may be missing. Equal values may be shown once.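 Assay format: 96-well plates, 48-hour exposure. GI50: concentration for 50% inhibition of growth. At the TGI there is no net growth.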

Common to all, as to assay: DTP human tumour cell line panel, 48 h
Test [1] deals with HL-60(TB) leukemia.
In test [2] the test system is KM12 colon.
For test [3], the system named is LOX IMVI melanoma.
For test [4], the system named is MALME-3M melanoma.
The test system of test [5] is NCI-H460 lung.
The subject of test [6] is RXF 393 renal.
The subject of test [7] is SK-OV-3 ovarian.
The test system of test [8] is UACC-257 melanoma.
The subject of test [9] is MDA-MB-231 breast.
Test [10] has as its system T-47D breast.

Consider `CC1=C[P+](Cc2ccccc2)(c2ccccc2)CC1` (stereo not given), for which the concentration for total growth inhibition (TGI) in test [1], in [2], in test [3], in test [4], in test [5] and in [6] was > 100 µM each time. In addition, the TGI (commonly the concentration at which net growth stops) is > 100 µM in [7]; > 100 µM and 78 µM in test [8]. In addition, the GI50 (in general, the concentration giving 50% growth inhibition) in test [4] was 19.9 µM and 76.5 µM and 31.2 µM.

As to `O=C1CC(O)(c2ccccc2)C(c2ccccc2)=C1c1ccccc1` (stereo not given), the TGI is 56.3 µM in test [1]; > 100 µM in [2]; > 100 µM in [3]; > 100 µM in [4]; > 100 µM in test [5]; > 100 µM in [6]. Moreover, the TGI in test [7] and in test [8] was > 100 µM in each case.

`CCOc1ccc(NC(=O)C2=C(C)NC(C)=C(C(=O)Nc3ccc(OCC)cc3)C2c2ccccc2)cc1`: the TGI was 96.9 µM in test [1]; > 100 µM in test [2]; > 100 µM in test [3]; > 100 µM in [4]; > 100 µM in test [5]; > 100 µM in test [6]. The concentration for total growth inhibition (TGI) in test [7] and in [8] was > 100 µM each time.

For `Clc1cc2n[se]nc2cc1Cl`, the TGI in test [1], in [2], in test [3], in test [4], in test [5] and in [6] was > 100 µM in each case. Further, the TGI in test [7] and in [8] was > 100 µM in each case.

As to `CCC[CH2][Sn]1([CH2]CCC)[O]C(=O)c2ccc(C)cc2[O]1`, the concentration for 50% growth inhibition (GI50) was 0.273 µM in test [1]; 1.06 µM in test [2]; 0.184 µM in test [3]; 0.327 µM in test [4]; 1.77 µM in test [5]; 0.306 µM in [6]. Also, the figures for the GI50 in test [7] and in [8] were 1.4 µM and 0.316 µM, respectively. The TGI in [1] was found to be 1.01 µM; in [2] it was 2.36 µM; in test [3] it was 0.357 µM; in test [4], 1.44 µM; in test [5], 4.12 µM; in [6] it was 0.839 µM. The TGI in test [7] is 2.75 µM; in test [8] it was 1.49 µM.

As to `C[n+]1ccc(-c2c3nc(c(-c4cc[n+](C)cc4)c4ccc([n-]4)c(-c4cc[n+](C)cc4)c4nc(c(-c5cc[n+](C)cc5)c5ccc2[n-]5)C=C4)C=C3)cc1.[I-].[Zn+2]`, the GI50 in test [1] was 21.5 µM; in test [2] it was 23.3 µM; in test [3] it was 82.9 µM; in test [4], 18.3 µM; in test [5] it was 23.5 µM; in test [6], 3.03 µM. Also, the GI50 in test [7] was 33 µM; in test [8], 9.61 µM. Besides, the TGI in [1] is 42 µM; in test [2] it was 69.5 µM; in [3], > 100 µM; in [4] it was 39.8 µM; in test [5], 53.5 µM; in test [6], 7.91 µM. Also, the TGI was 69.5 µM in [7] and 30.1 µM in [8].

As for `CSCCOC(=O)C(=[N+]=[N-])c1ccc([N+](=O)[O-])cc1`, the concentration for total growth inhibition (TGI) in test [1], in test [2], in test [3], in test [4], in [5] and in test [6] was > 100 µM each time. Further, the TGI in test [7] and in [8] was > 100 µM each time.

For `NCCN1C(=O)C2C3c4ccccc4C(c4ccccc43)C2C1=O` (stereo not given), the TGI in test [1], in [2], in test [4], in test [5], in test [7] and in test [8] was > 100 µM each time.

For `COc1cc2c(cc1OC)C(=O)Cc1ccc(OC)c(OC)c1CN(C)CC2`, the total growth inhibition concentration (TGI) is > 100 µM in test [2]; > 100 µM in test [3]; > 100 µM in test [4]; 84.4 µM in [5]; > 100 µM in [7]; > 100 µM in test [8].

Take `OC1C2CCC1C1C3C=CC(C3)C21` (stereo not given): the total growth inhibition concentration (TGI) in test [1], in test [2], in test [3], in test [4], in test [5] and in [6] was > 100 µM in each case. For the same molecule, the TGI in test [7] and in [8] was > 100 µM each time.

`CCOC(=O)c1ccc(NC(=O)SCCC(=O)O)cc1`: the concentration for total growth inhibition (TGI) in test [1], in test [2], in [3], in test [5], in test [6] and in [8] was > 100 µM each time.

For the molecule `COc1ccc(-c2cc(-c3ccc(O)cc3)nc3n[nH]c(N)c23)cc1`, the GI50 was 16.3 µM in test [2]; 17 µM in test [3]; 21 µM in [4]; 14.9 µM in test [9]; 21.6 µM in test [5]; 29 µM in test [6]. Also, the figures for the GI50 in test [10] and in test [8] were 18 µM and 21.8 µM, respectively. For the same molecule, the TGI in test [2] turned out to be 40.7 µM; in test [3], 36.4 µM; in [4], 44 µM; in test [9], 50.3 µM; in [5] it was 58.2 µM; in test [6], 92.5 µM. The total growth inhibition concentration (TGI) was 83.5 µM in test [10] and 56.9 µM in test [8].

On to `c1ccc2c(c1)[nH]c1c2nc2ncccn21`, for which the TGI in [2], in [4], in [5], in test [6], in test [7] and in test [8] was > 100 µM each time.

For the molecule `O=S(O)CCCSSc1ccccc1`, the TGI in test [2], in test [3], in test [4], in test [5], in test [6] and in test [7] was > 100 µM each time. In addition, the TGI in [8] was > 100 µM.

For `CCOC(=O)/C(C#N)=C1/C(O)=C(C(=O)OC)C(C(=O)OC)=C1C(=O)OC`, the TGI in test [1], in test [2], in test [3], in test [4], in [5] and in test [6] was > 100 µM each time. For the same molecule, the total growth inhibition concentration (TGI) in [7] and in test [8] was > 100 µM throughout.

For the molecule `O=C(NCC(O)CNC(=O)C(F)(F)F)C(F)(F)F`, the TGI in [1], in [2], in test [3], in [4], in test [5] and in test [6] was > 100 µM each time. For the same molecule, the TGI in [7] and in test [8] was > 100 µM throughout.

`Cc1cc2c(c3oc(C4(C)OC4C4OC4C)cc(=O)c13)C(=O)c1c(O)c(C3CC(C)(N(C)C)C(O)C(C)O3)cc(C3CC(N(C)C)C(O)C(C)O3)c1C2=O` (stereo not given): the GI50 in test [2] was 0.000894 µM and 0.000134 µM; in test [3] it was 0.000175 µM; in [5] it was < 1e-05 µM; in test [6], < 1e-05 µM; in test [7], 0.00238 µM; in test [10], 0.000251 µM. Also, the TGI in [2] was 0.0419 µM and 0.00486 µM; in test [3] it was 0.00189 µM and 0.000224 µM; in [9], 0.000547 µM and 0.00161 µM; in test [6], 7.97e-05 µM and 0.000406 µM; in test [8], 0.00312 µM and 0.000772 µM.

For `Cc1nn(C)cc1P(=S)(c1ccccc1)c1ccccc1`, the TGI in test [1] was 41.7 µM; in test [2], > 100 µM; in [3], > 100 µM; in test [4], > 100 µM; in test [5], > 100 µM; in test [6] it was > 100 µM. Also, the TGI in test [7] and in test [8] was > 100 µM each time.

`NC(N)=NS(=O)(=O)c1ccc(Nc2c3ccccc3nc3c(C(=O)Nc4ccc(S(N)(=O)=O)cc4)ccc(Cl)c23)cc1`: the concentration for total growth inhibition (TGI) in test [1], in [2], in test [3], in test [4], in [5] and in test [6] was > 100 µM in each case. The TGI in test [7] and in test [8] was > 100 µM each time.

Turning to `CC1OC(OC2C(CO)OC(O[C@H]3CC[C@@]4(C)C(=CC[C@H]5[C@@H]6C[C@@H]7O[C@]8(CC[C@@H](C)CN8)[C@@H](C)[C@@H]7[C@@]6(C)CC[C@@H]54)C3)C(O)C2O)C(O)C(O)C1O` (stereo not given in full), the total growth inhibition concentration (TGI) in [1], in test [2], in test [3], in [4], in [5] and in [6] was > 100 µM each time. In addition, the TGI in test [7] and in test [8] was > 100 µM each time.

Consider `OCC1OC(n2cnc3c(Cl)nc(Cl)cc32)C(O)C1O` (stereo not given), for which the GI50 in [1], in test [2], in [4], in [5], in test [6] and in [7] was > 100 µM in each case. Further, the GI50 in test [10] was > 100 µM. Also, the TGI in [1], in [2], in [4], in [5], in [6] and in test [7] was > 100 µM each time. Moreover, the TGI in test [10] is > 100 µM.

Take `Fc1cccc2c1cc1ccc3cccc4ccc2c1c34`: the TGI in test [1], in test [2], in test [3], in test [4], in test [6] and in test [7] was > 100 µM in each case. Besides, the TGI in test [8] was > 100 µM.

For `C=C1C(=O)O[C@@H]2C1C[C@@H](O)C(=C)CC/C=C(\C)CCC[C@H](C)[C@H]2OC(C)=O` (stereo not given in full), the GI50 in test [2] was 11.4 µM; in test [3], 2.14 µM; in test [9], 4.07 µM; in test [5], 18.2 µM; in test [6] it was 4.15 µM; in [7] it was 14.8 µM. Also, the figures for the GI50 in [10] and in [8] were 6.46 µM and 16 µM, respectively. The total growth inhibition concentration (TGI) in test [2] turned out to be 26 µM; in test [3], 6.07 µM; in test [9], 18.6 µM; in test [5] it was 41.4 µM; in [6] it was 20.9 µM; in test [7] it was 32.5 µM. In addition, the TGI in [10] turned out to be 42.3 µM; in [8], 35.9 µM.

On to `O=C1c2ccccc2C(=O)N1C/C=C/CO`, for which the TGI in [1], in test [2], in test [4], in test [5], in [6] and in test [7] was > 100 µM throughout. Besides, the TGI in test [8] is > 100 µM.

With `CCOc1ccccc1NC(=O)CCc1n[nH]c(=S)o1`, the concentration for total growth inhibition (TGI) in test [1], in [2], in [3], in test [4], in [7] and in [8] was > 100 µM throughout.

`COC(=O)c1ccc(Cl)cc1NC(=O)C1CCCCC1`: the TGI in test [2], in [4], in test [6] and in test [8] was > 100 µM in each case.

Regarding `CC[C@@H]1C[C@H]2CC3c4[nH]c5ccc(O)cc5c4CCN(C2)C31`, the total growth inhibition concentration (TGI) in [1], in test [2], in [3], in [4], in test [5] and in test [6] was > 100 µM each time. In addition, in test [8], the total growth inhibition concentration (TGI) is > 100 µM.

For `O=C(COC(=O)c1cccc2c(=O)c3ccccc3[nH]c12)Nc1ccccc1`, the TGI was 36.1 µM in [1]; 54.1 µM in [2]; 73.2 µM in test [3]; > 100 µM in test [4]; > 100 µM in test [5]; 97.9 µM in [6]. Further, the TGI in [7] and in test [8] was > 100 µM throughout.

For the molecule `N#C/C(=C/Sc1ccccc1)C(=O)O`, the TGI in test [1] is > 100 µM; in [2], 99.3 µM; in test [3] it was 24.5 µM; in [5] it was > 100 µM; in test [6] it was 58.2 µM; in [7] it was > 100 µM. In addition, the TGI in [8] is > 100 µM.
